Laboratory results published in PMC3493614, “Structural and Binding Properties of Two Paralogous Fatty Acid Binding Proteins of Taenia solium Metacestode” (PLoS Neglected Tropical Diseases, 2012).
Several values for one entry are separate records, joined by “and”; a condition that tells them apart may be missing. Equal values may be shown once. Read-outs that look alike come from different tables or passages of the source.

Experiments:
recTsMFABP1 [1] = target: T1, recTsMFABP1 (Taenia solium, UniProt Q2XNL7); test: Fluorometric ligand binding assay, recombinant TsMFABP1; settings: for Kd / Vmax: one-site saturation model, 25°C; for Kd: ligand 0.1-10 µM; for Vmax: rate calculated from relative fluorescence (Vmax = Fmax), ligand 0.1-10 µM (FA analogs) or 0.1-10 mM (retinol); for Vmax/K d (binding rate constant): ratio of Vmax to K d
Method: (§1) All the proteins were delipidated for 2 h using Sephadex-LH (Sigma-Aldrich) prior to assay. The ligand binding profile of the native and rTsMFABPs were detected spectrofluorometrically using fluorescent FA analogs, including 11-([5-dimethylaminonaphthalene-1-sulfonyl]amino)undecannoic acid (DAUDA), dansyl-DL-α-aminocaprylic acid (DACA) (Molecular Probes), retinol (Sigma-Aldrich) and naturally fluorescent cis-parinaric acid (cPnA; Molecular Probes). Fluorescence emission spectra were recorded at 25°C with a total volume of 200 µl per well using black 96-well Microfluor 1 plates and an Infinite M-200 automated multi-detector (Tecan). The emission and excitation wavelengths for DAUDA, DACA, retinol and cPnA were 519, 519, 325 and 420 nm, and 345, 350, 350 and 315 nm, respectively. We included the TsM 120-kDa protein (10 µM) and recombinant 18 kDa (5 µM; a subunit of the TsM 120-kDa protein), which were proven not to have FA-binding activity, as negative controls during the measurements. All fluorescent stock compounds (10 mM dissolved in ethanol) were stored at −20°C in a dark room and were freshly diluted in ethanol prior to use. The equilibrium dissociation constants (K d) of the proteins bound to DAUDA, retinol and cPnA were estimated by adding increasing concentrations of respective ligands (0.1–10 µM for FA analogs and 0.1–10 mM for retinol) in a micro-quartz plate. Fluorescence intensities were normalized to the peak fluorescence intensity and corrected for background fluorescence of the ligand alone at each concentration. Corrected data were analyzed using the one-site saturation model and best fit algorithm contained in SigmaPlot9 software (y = V max X/K m+X, where y is relative fluorescence and X is concentrations of lipid ligand. V max can be substituted as Fmax [maximum fluorescence]). Competition assays were carried out by monitoring the change in fluorescence intensity at the peak transmission wavelength measured for either rTsMFABPs:DAUDA, rTsMFABPs:retinol or rTsMFABPs:cPnA complex in the presence of 10-fold excess oleic acid.
(§2) The partially purified native and recombinant proteins were subjected to delipidation. Each of the proteins (1 µM) was used in a hydrophobic ligand binding assay against the polarity-sensitive fluorophore-tagged FA analogs (0.1 µM) and retinol (5 mM). […] The TsMFABP2 also bound to DAUDA, although its specific activity was lower than that of the TsMFABP1. […] The retinol-binding activity of rTsMFABP2 appeared to be higher than that of rTsMFABP1. […] No binding activity was detected in the reactions with the TsM 120-kDa and recombinant 18-kDa proteins, which were used as negative controls.

recTsMFABP2 [2] = target: T2, recTsMFABP2 (Taenia solium, UniProt F2WVQ3); test: Fluorometric ligand binding assay, recombinant TsMFABP2; settings: for Vmax: rate calculated from relative fluorescence (Vmax = Fmax), ligand 0.1-10 µM (FA analogs) or 0.1-10 mM (retinol); for Vmax/K d (binding rate constant): ratio of Vmax to K d
Method: as §1, §2

recTsMFABP1 [3] = target: T1, recTsMFABP1; test: Fluorometric ligand binding assay, recombinant TsMFABP1; settings: rTsMFABP1:DAUDA complex; oleic acid 5 µM (Figure 2B); protein 1 µM, DAUDA 0.1 µM
recTsMFABP2 [4] = target: T2, recTsMFABP2; test: Fluorometric ligand binding assay, recombinant TsMFABP2; settings: rTsMFABP2:retinol complex; oleic acid 5 µM (Figure 2D); protein 1 µM, retinol 5 mM
[5] = protein 1 µM, FA analog 0.1 µM, data not shown
[6] = one-site saturation model, ligand 0.1-10 µM, 25°C, read-out: K d
[7] = one-site saturation model, 25°C

T1 sequence (Q2XNL7 entry or part of it): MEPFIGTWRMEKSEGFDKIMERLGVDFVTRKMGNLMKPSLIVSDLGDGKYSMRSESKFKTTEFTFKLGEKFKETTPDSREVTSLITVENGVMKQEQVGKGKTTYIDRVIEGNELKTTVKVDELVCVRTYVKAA
T2 sequence (F2WVQ3 entry or part of it): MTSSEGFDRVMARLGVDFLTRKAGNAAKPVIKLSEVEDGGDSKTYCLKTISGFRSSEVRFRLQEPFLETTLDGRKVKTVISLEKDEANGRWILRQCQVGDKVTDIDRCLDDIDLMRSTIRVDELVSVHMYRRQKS

SMILES | Binding (fluorescence interaction mode) (recTsMFABP1 [1]; [5]) | Binding (fluorescence interaction mode) (recTsMFABP2 [2]; [5]) | Kd (recTsMFABP1 [1]) | Vmax (recTsMFABP1 [1]) | Vmax/K d (binding rate constant) (recTsMFABP1 [1]) | Kd (recTsMFABP2 [2]; [6]) | Vmax (recTsMFABP2 [2]; [7]) | Vmax/K d (binding rate constant) (recTsMFABP2 [2]) | Vmax/K d (binding rate constant) (recTsMFABP1 [1]; listed as retinol) | Kd (recTsMFABP2 [2]) | Vmax/K d (binding rate constant) (recTsMFABP2 [2]; listed as retinol) | Competition with DAUDA binding (recTsMFABP1 [3]) | Competition with retinol binding (recTsMFABP2 [4])
CCCCCCC(NS(=O)(=O)c1cccc2c(N(C)C)cccc12)C(=O)O (racemic) [DACA, dansyl-DL-α-aminocaprylic acid] | interaction modes comparable to those with DAUDA | interaction modes comparable to those with DAUDA | – | – | – | – | – | – | – | – | – | – | –
CN(C)c1cccc2c(S(=O)(=O)NCCCCCCCCCCC(=O)O)cccc12 [DAUDA, 11-([5-dimethylaminonaphthalene-1-sulfonyl]amino)undecannoic acid] | – | – | 2150 ± 140 nM | 299.5±3.0 | 139.3 and 139.3±12.7 | 9400 ± 890 nM | 364.2±3.5 | 38.7 and 38.7±3.94 | – | – | – | – | –
CC1=C(/C=C/C(C)=C/C=C/C(C)=C/CO)C(C)(C)CCC1 [Retinol, retinol] | – | – | – | 306.3±31.4 | 172.1±15.5 | – | 207.1±19.6 | 211.3±20.3 | 172.1 | 980000 ± 80000 nM | 211.3 | – | –
CC\C=C/C=C/C=C/C=C\CCCCCCCC(=O)O [cPnA, cis-parinaric acid] | – | – | 280 ± 20 nM | 608.4±57.8 | 2172.9 and 2172.9±214.6 | 640 ± 40 nM | 309.1±28.4 | 483.0 and 483.0±47.1 | – | – | – | – | –
CCCCCCCC/C=C\CCCCCCCC(=O)O [oleic acid] | – | – | – | – | – | – | – | – | – | – | – | competitively inhibited by oleic acid in a dose-dependent manner | significant replacement of retinol from the binding site
